# Values of other authors in publication PMC10343355, “Finding the Right Solvent: A Novel Screening Protocol for Identifying Environmentally Friendly and Cost-Effective Options for Benzenesulfonamide” (Molecules, 2023).
# Where two headings read alike, the source gives them in different places.
# Design: method as in Li et al.
# Conditions: ref Li et al., cited from earlier work
smiles,measurement,setting,value
"NS(=O)(=O)c1ccccc1 [BSA, Benzenesulfonamide]",log(x1)exp,"Acetonitrile, 0.00 °C",-1.46
same,log(x1)exp,"Acetonitrile, 6.00 °C",-1.40
same,log(x1)exp,"Acetonitrile, 10.30 °C",-1.35
same,log(x1)exp,"Acetonitrile, 15.80 °C",-1.30
same,log(x1)exp,"Acetonitrile, 20.10 °C",-1.25
same,log(x1)exp,"Acetonitrile, 25.70 °C",-1.19
same,log(x1)exp,"Acetonitrile, 30.00 °C",-1.14
same,log(x1)exp,"Acetonitrile, 35.00 °C",-1.09
same,log(x1)exp,"Acetonitrile, 40.00 °C",-1.03
same,log(x1)exp,"Acetonitrile, 44.50 °C",-0.98
same,log(x1)exp,"Acetonitrile, 50.00 °C",-0.93
same,log(x1)exp,"Cyclopentanone, 0.00 °C",-0.86
same,log(x1)exp,"Cyclopentanone, 6.00 °C",-0.84
same,log(x1)exp,"Cyclopentanone, 10.70 °C",-0.82
same,log(x1)exp,"Cyclopentanone, 16.00 °C",-0.80
same,log(x1)exp,"Cyclopentanone, 20.60 °C",-0.78
same,log(x1)exp,"Cyclopentanone, 26.00 °C",-0.75
same,log(x1)exp,"Cyclopentanone, 30.60 °C",-0.73
same,log(x1)exp,"Cyclopentanone, 36.00 °C",-0.70
same,log(x1)exp,"Cyclopentanone, 40.20 °C",-0.68
same,log(x1)exp,"Dichloromethane, 0.00 °C",-2.87
same,log(x1)exp,"Dichloromethane, 6.00 °C",-2.76
same,log(x1)exp,"Dichloromethane, 10.30 °C",-2.67
same,log(x1)exp,"Dichloromethane, 15.80 °C",-2.56
same,log(x1)exp,"Dichloromethane, 20.10 °C",-2.48
same,log(x1)exp,"Dichloromethane, 25.70 °C",-2.37
same,log(x1)exp,"Dichloromethane, 30.00 °C",-2.31
same,log(x1)exp,"Dichloromethane, 35.00 °C",-2.22
same,log(x1)exp,"Dichloromethane, 39.00 °C",-2.16
same,log(x1)exp,"Ethyl Acetate, 0.00 °C",-1.49
same,log(x1)exp,"Ethyl Acetate, 6.00 °C",-1.44
same,log(x1)exp,"Ethyl Acetate, 10.30 °C",-1.41
same,log(x1)exp,"Ethyl Acetate, 15.80 °C",-1.37
same,log(x1)exp,"Ethyl Acetate, 20.10 °C",-1.33
same,log(x1)exp,"Ethyl Acetate, 25.70 °C",-1.29
same,log(x1)exp,"Ethyl Acetate, 30.00 °C",-1.25
same,log(x1)exp,"Ethyl Acetate, 35.00 °C",-1.21
same,log(x1)exp,"Ethyl Acetate, 40.00 °C",-1.17
same,log(x1)exp,"Ethyl Acetate, 44.50 °C",-1.13
same,log(x1)exp,"Ethyl Acetate, 50.00 °C",-1.09
same,log(x1)exp,"Ethyl Formate, 0.00 °C",-1.74
same,log(x1)exp,"Ethyl Formate, 6.00 °C",-1.69
same,log(x1)exp,"Ethyl Formate, 10.30 °C",-1.64
same,log(x1)exp,"Ethyl Formate, 15.80 °C",-1.59
same,log(x1)exp,"Ethyl Formate, 20.10 °C",-1.54
same,log(x1)exp,"Ethyl Formate, 25.70 °C",-1.48
same,log(x1)exp,"Ethyl Formate, 30.00 °C",-1.44
same,log(x1)exp,"Ethyl Formate, 35.00 °C",-1.38
same,log(x1)exp,"Ethyl Formate, 40.00 °C",-1.33
same,log(x1)exp,"Ethyl Formate, 44.50 °C",-1.28
same,log(x1)exp,"Ethyl Formate, 50.00 °C",-1.22
same,log(x1)exp,"Isobutanol, 0.00 °C",-2.41
same,log(x1)exp,"Isobutanol, 6.00 °C",-2.35
same,log(x1)exp,"Isopentanol, 0.00 °C",-2.38
same,log(x1)exp,"Isopentanol, 6.00 °C",-2.31
same,log(x1)exp,"Isopentanol, 10.70 °C",-2.25
same,log(x1)exp,"Isopentanol, 16.00 °C",-2.17
same,log(x1)exp,"Isopentanol, 20.60 °C",-2.09
same,log(x1)exp,"Isopentanol, 26.00 °C",-2.00
same,log(x1)exp,"Isopentanol, 30.60 °C",-1.92
same,log(x1)exp,"Isopentanol, 36.00 °C",-1.83
same,log(x1)exp,"Isopentanol, 40.20 °C",-1.76
same,log(x1)exp,"Isopentanol, 46.00 °C",-1.68
same,log(x1)exp,"Isopentanol, 51.30 °C",-1.60
same,log(x1)exp,"Methanol, 0.00 °C",-1.53
same,log(x1)exp,"Methanol, 6.00 °C",-1.49
same,log(x1)exp,"Methanol, 10.30 °C",-1.45
same,log(x1)exp,"Methanol, 15.80 °C",-1.39
same,log(x1)exp,"Methanol, 20.10 °C",-1.34
same,log(x1)exp,"Methanol, 25.70 °C",-1.27
same,log(x1)exp,"Methanol, 30.00 °C",-1.21
same,log(x1)exp,"Methanol, 40.00 °C",-1.09
same,log(x1)exp,"Methanol, 44.50 °C",-1.03
same,log(x1)exp,"Methanol, 50.00 °C",-0.97
same,log(x1)exp,"n-Butanol, 46.00 °C",-1.56
same,log(x1)exp,"n-Butanol, 51.30 °C",-1.49
same,log(x1)exp,"n-Pentanol, 36.00 °C",-1.78
same,log(x1)exp,"n-Pentanol, 40.20 °C",-1.73
same,log(x1)exp,"n-Pentanol, 46.00 °C",-1.63
same,log(x1)exp,"n-Pentanol, 51.30 °C",-1.56
same,log(x1)exp,"n-Propanol, 0.00 °C",-2.09
same,log(x1)exp,"n-Propanol, 6.00 °C",-2.04
same,log(x1)exp,"n-Propanol, 10.70 °C",-1.99
same,log(x1)exp,"n-Propanol, 16.00 °C",-1.91
same,log(x1)exp,"n-Propanol, 20.60 °C",-1.84
same,log(x1)exp,"n-Propanol, 26.00 °C",-1.76
same,log(x1)exp,"n-Propanol, 30.60 °C",-1.68
same,log(x1)exp,"n-Propanol, 36.00 °C",-1.60
same,log(x1)exp,"n-Propanol, 40.20 °C",-1.53
same,log(x1)exp,"n-Propanol, 46.00 °C",-1.44
same,log(x1)exp,"n-Propanol, 51.30 °C",-1.37
same,log(x1)exp,"solvent Isobutanol, T 10.70 °C, mole fraction solubility",-2.27
same,log(x1)exp,"solvent Isobutanol, T 16.00 °C, mole fraction solubility",-2.18
same,log(x1)exp,"solvent Isobutanol, T 20.60 °C, mole fraction solubility",-2.09
same,log(x1)exp,"solvent Isobutanol, T 26.00 °C, mole fraction solubility",-2.00
same,log(x1)exp,"solvent Isobutanol, T 30.60 °C, mole fraction solubility",-1.92
same,log(x1)exp,"solvent Isobutanol, T 36.00 °C, mole fraction solubility",-1.83
same,log(x1)exp,"solvent Isobutanol, T 40.20 °C, mole fraction solubility",-1.75
same,log(x1)exp,"solvent Isobutanol, T 46.00 °C, mole fraction solubility",-1.67
same,log(x1)exp,"solvent Isobutanol, T 51.30 °C, mole fraction solubility",-1.59
